In patent US11129801B2 (SigmaThera SAS, priority 2016, dated 2021):
Where “and” joins values, the source holds several entries; their conditions need not be identical. Equal entries are not always repeated.

Columns and labels:
[1] = test system: gerbil model of global cerebral ischemia; settings: cited from earlier work
[2] = test system: rat primary dopaminergic neurons (TH positive neurons); assay: Survival of primary dopaminergic neurons injured by 6OHDA; type: cell-based; settings: 6OHDA 20 μM, 48 h
Procedure: Rat dopaminergic neurons were cultured as described (Schinelli S, et al. Journal of neurochemistry 50(6): 1900-1907). Briefly pregnant female rats of 15 days gestation were killed by cervical dislocation (Rats Wistar; Janvier) and the foetuses removed from the uterus. The embryonic midbrains were removed and placed in ice-cold medium of Leibovitz 15 (L15; PanBiotech, Ref P04-27055, Batch: 8810315) containing 2% of Penicillin-Streptomycin (PS; PanBiotech, ref: P06-07100, Batch: 7511015) and 1% of bovine serum albumin (BSA; PanBiotech, Ref: P06-1391100, Batch: H140904). Only the ventral portions of the mesencephalic flexure were used for the cell preparations as this region of the developing brain is rich in dopaminergic neurons. The midbrains were dissociated by trypsinization for 20 minutes (min) at 37° C. (Trypsin EDTA 1×; PanBiotech, Ref: P10-023100, batch: 1670415). The reaction was stopped by the addition of Dulbecco's modified Eagle's medium (DMEM; PanBiotech, Ref: P04-03600, Batch: 9021115) containing DNase I grade II (0.1 mg/ml; PanBiotech, Ref: P60-37780100, Batch: H140508) and 10% of fetal calf serum (FCS; Invitrogen). Cells were then mechanically dissociated by 3 passages through a 10 ml pipette. Cells were then centrifuged at 180×g for 10 min at 4° C. on a layer of BSA (3.5%) in L15 medium. The supernatant was discarded and the cell pellets were re-suspended in a defined culture medium consisting of Neurobasal (Invitrogen, Ref: 21103, Batch: 1754639) supplemented with B27 (2%; Invitrogen, ref: 17504, batch: 1799273), L-glutamine (2 mM; PanBiotech, Ref: P04-80100, Batch: 6620314) and 2% of PS, 10 ng/mL of BDNF (PanBiotech, Ref: CB-1115002, Batch: 121027) and 1 ng/mL of GDNF (PanBiotech, Ref: CB-1116001, Batch: H151004). Viable cells were counted in a Neubauer cytometer using the trypan blue exclusion test. The cells were seeded at a density of 4×10^4 cells/well in 96 well-plates (pre-coated with poly-D-lysine; Greiner, Ref: E150033VJ) and were cultured at 37° C. in a humidified air (95%)/CO2 (5%) atmosphere. Half of the medium was changed every 2 days with fresh medium. In these conditions, after 5 days of culture, astrocytes are present in the culture and release growth factor allowing neurons differentiation. Five to six percent of the neuronal cell population was dopaminergic neurons.
Briefly, on day 6 of culture, cells were pre-treated for 1 h with test compound or reference compound then intoxicated with 6OHDA (20 μM) for 48 h. The following conditions were done:
[…]_+6OHDA (20 μM, 48 h+BDNF (50 ng/ml) as a reference compound
One culture was done with 6 wells per condition. […]
The data were expressed as mean±s.e.m. […]

[3] = test system: Aβ25-35 mouse model of Alzheimer's disease; assay: Aβ25-35 mouse model, overall neuroprotection (summary statements); type: in vivo
Procedure: The compound efficacy was evaluated 7 days after the peptide administration on the attenuation of the Aβ25-35-induced learning deficits (spatial working memory using the spontaneous alternation in the Y-maze test, and contextual long-term memory using the passive avoidance test).
The mice were tested 7 days post injection or at the indicated time points.
In Experiment 2, twelve mice per experimental group were administered Sc.Aβ or Aβ25-35-amyloid peptide on day 0 by i.c.v. injection. […] Animals were tested at day 7 and later.
The synergy/additivity/antagonism was evaluated by calculating the combination index. […] Animals were then tested at day 7 and later.
Animals were tested at day 7 and later.
For each of Experiments 1-4, on day 7, all animals were tested for the spontaneous alternation performance in the Y-maze test, an index of spatial working memory. On day 8 and 9, the contextual long-term memory of the animals was assessed using the step-through type passive avoidance procedure. On day 9, immediately after the retention session, animals were sacrificed by decapitation and the hippocampus and cortex dissected out. Lipid peroxidation was analyzed in the hippocampus, whereas neuroinflammation, apoptosis, amyloid burden and hyperphosphorylation of tau protein were analyzed in cortex.

Molecule | effective doses, neuroprotective effects [1] | TH positive neurons ([2]; 0.3 μM) | TH positive neurons ([2]; 1 μM) | TH positive neurons ([2]; 3 μM) | dose in combination versus dose active on depression (fold lower) ([3]; combined with donepezil, ibuprofen, selegiline or atorvastatin) | lowest dose with effect, preventive treatment ([3]; given 20 min before Aβ25-35) | lowest dose with effect, curative treatment ([3]; starting 1 day after induction of the toxicity) | synergistic effect in combination ([3]; with donepezil, ibuprofen, selegiline or atorvastatin, not with memantine) | TH positive neurons ([2]; 50 ng/mL)
CCC(C/C=C/c1ccccc1)(c1ccccc1)N(C)CC1CC1 (single isomer, unassigned; (+)) [igmesine, (+)-(E)-N-(cyclopropylmethyl)-N-methyl-3,6-diphenylhex-5-en-3-amine] | 50 mg/kg and 75 mg/kg and 100 mg/kg | 94.58 % of the control | 100.49 % of the control | 87.68 % of the control | 300 fold | 0.3 mg/kg | 1 mg/kg | clear synergistic effect | –
BDNF: Brain-derived neurotrophic factor, used as a reference compound (protein, UniProt P23560 19-247, looked up) Neurotrophic factor BDNF …: APMKEANIRGQGGLAYPGVRTHGTLESVNGPKAGSRGLTSLADTFEHVIEELLDEDQKVRPNEENNKDADLYTSRVMLSSQVPLEPPLLFLLEEYKNYLDAANMSMRVRRHSDPARRGELSVCDSISEWVTAADKKTAVDMSGGTVTVLEKVPVSKGQLKQYFYETKCNPMGYTKEGCRGIDKRHWNSQCRTTQSYVRALTMDSKKRIGWRFIRIDTSCVCTLTIKRGR | – | – | – | – | – | – | – | – | 91.03 % of the control
